According to PMC11063903, “Engineering a human P2X2 receptor with altered ligand selectivity in yeast” (The Journal of Biological Chemistry, 2024):
Changes are numbered by the printed parent chain.

What was measured:
P2X2 F303Y = molecular target: T1, P2X2 F303Y (Homo sapiens, UniProt Q9UBL9, F303Y); assay: Fast GCaMP-mScarletI assay in yeast, P2X2 F303Y; type: cell-based; settings: for Bottom, best fit value / Hillslope, best fit value / Top, best fit value: four-parameter logistic fit of ΔF/ΔT; for Bottom, best fit value / Hillslope, best fit value / Top, best fit value / EC50: n = 3; for EC50: four-parameter logistic fit, unit inferred, unit M, read-out: EC50, best fit value
T1 construct: expressed in transfected cells; host or cells: S. cerevisiae BY4741 background
T1 sequence (Q9UBL9 1-471 F303Y): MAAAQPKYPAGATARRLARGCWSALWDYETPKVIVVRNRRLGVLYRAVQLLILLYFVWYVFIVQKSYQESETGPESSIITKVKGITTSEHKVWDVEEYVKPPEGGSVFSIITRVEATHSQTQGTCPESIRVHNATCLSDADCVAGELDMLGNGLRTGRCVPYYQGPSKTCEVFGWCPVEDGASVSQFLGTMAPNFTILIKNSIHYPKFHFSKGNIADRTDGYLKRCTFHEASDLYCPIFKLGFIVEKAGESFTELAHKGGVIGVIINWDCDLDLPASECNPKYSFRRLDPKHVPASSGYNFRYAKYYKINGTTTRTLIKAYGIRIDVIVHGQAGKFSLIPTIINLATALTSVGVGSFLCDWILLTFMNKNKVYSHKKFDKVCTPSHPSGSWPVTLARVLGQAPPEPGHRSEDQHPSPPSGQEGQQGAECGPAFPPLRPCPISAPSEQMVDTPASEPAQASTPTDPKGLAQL
Protocol: (§1) Figure 4 Unnatural-ligand gating in LBD libraries.A, WT P2X2 was tested with 1 mM ATP, 500 μM AMP-PNP, and compared to ATP with the broken receptor (K81C K83C) control with 1 mM ATP in the fast GCaMP-mScarletI assay (n = 3). […] B, heat map summarizing AMP-PNP signaling (ΔF/ΔT, fast GCaMP-mScarletI assay) in the site-saturation libraries (n = 2–3). All values are normalized to WT P2X2 with saturating amounts of AMP-PNP (500 μM) and therefore represent low signal (ΔF/ΔT) compared to the ATP ligand. C, F301W, F303Y, and A304W were combinatorially combined and tested against the WT, K81C K83C broken P2X2, and the single mutant clones with both ATP (1 mM, black) and AMP-PNP (500 μM, pink). […] Values here represent signal onset and are not normalized to a positive control (n = 2–5). D–K, dose response of each P2X variant with both ATP (black) and AMP-PNP (pink) in the fast GCaMP-mScarletI assay (n = 3). Statistics were performed via one-way ANOVA with Dunnett’s multiple comparisons with to the “broken” K81C K83C negative control. ∗ represents a p value ≤0.05, ∗∗ is p ≤ 0.01, and ∗∗∗ is p ≤ 0.001.
(§2) Given that the yeast-based screen seemed to recapitulate important structural and functional features of human ion channel function, we hypothesized that it might be possible to engineer new P2X2 functionalities in yeast, including new ligand specificity. […] We screened our 133-member library in the presence of 500 μM AMP-PNP (Fig. S7). While the AMP-PNP signal was uniformly low, three substitutions (F301W, F303Y, and A304W) increased signaling 2.5 to 2.8 times relative to the negative control receptor (Figs. 4B, and S7, D, F, and G). To gain a more complete view of the properties of these mutants, dose–response curves were generated with ATP and AMP-PNP (Fig. 4, D–G, and Table S2).
(§3) GCaMP assays were performed as follows. P2X2 GCaMP strains were designed with a bi-cistronic reporter, in which the GCaMP protein was followed by a 2A peptide and a mScarletI reporter ([53]). The co-translated mScarletI was designed to act as a control for plasmid loss, GCaMP breakage via nonsense mutation, and contamination. […] P2X2-GCaMP strains were cultured and induced as previously described. Samples were induced for 24 h to allow for the accumulation of the mature GCaMP protein. Cells were washed three times in 0.1 M MES/Tris buffer and resuspended with MES/Tris with supplemental calcium. Cells were loaded onto a black, clear bottom microplate and imaged on a FlexStation3 plate reader. Samples were imaged in “flex” mode. Samples were imaged for 48 s at an interval of 1.6 s. Fluorescence was measured with an excitation at 485 nm, and emission 525 nm. At the 21 s mark, 100 μl ligand solution was transferred to the cells. For strains with mScarlet, fluorescence was read with excitation 570 nm/emission 610 nm. Slopes were calculated from the last 6 points of measurement and were normalized to the positive control samples. Any replicate in which the mScarlet value was measured to be over 2 standard deviations less than the mean for that set was discarded from further analysis.
(§4) For multiple comparisons in the site-saturation screening data, One-way ANOVA with Dunnett’s multiple comparisons test was performed where every sample was compared to the “broken” negative control. Significance was plotted where ∗ represents a p value ≤0.05, ∗∗ is p ≤0.01, and ∗∗∗ is p ≤0.001. Dose–response curves were fit with nonlinear regression software using a four-parameter logistic curve. All statistics were calculated and plotted in Graphpad Prism software.

WT P2X2 = molecular target: T2, WT P2X2 (Homo sapiens, UniProt Q9UBL9); assay: Fast GCaMP-mScarletI assay in yeast, WT P2X2; type: cell-based; settings: for Bottom, best fit value / Hillslope, best fit value / Top, best fit value: four-parameter logistic fit of ΔF/ΔT
T2 construct: expressed in transfected cells; host or cells: S. cerevisiae BY4741 background, P2X2 genome-integrated under a galactose-inducible promoter
T2 sequence (Q9UBL9 1-471): T1 sequence (Q9UBL9 1-471 F303Y) with Y303F
Protocol: as §1, §2, §3, §4

SMILES | activity compared to the wild-type (P2X2 F303Y; AMP-PNP dose-response, Fig. 4D-G, Table S2) [fold] | Bottom, best fit value (P2X2 F303Y) | Hillslope, best fit value (P2X2 F303Y) | Top, best fit value (P2X2 F303Y) | EC50 (P2X2 F303Y) [µM] | signal of wildtype P2X2 receptor (WT P2X2; 500 μM AMP-PNP, Fig. 4A) | Bottom, best fit value (WT P2X2; n = 3) | Hillslope, best fit value (WT P2X2; n = 3) | Top, best fit value (WT P2X2; n = 3) | EC50 (WT P2X2; four-parameter logistic fit, n = 3, unit inferred, unit M, read-out: EC50, best fit value) [µM]
Nc1ncnc2c1ncn2[C@@H]1O[C@H](COP(=O)(O)OP(=O)(O)NP(=O)(O)O)[C@@H](O)[C@H]1O [AMP-PNP] | 1.89 | 0.2603 | 0.8857 | 2.141 | 328 | nearly undetectable signal | 0.429 | -1 | 1.129 | 
Nc1ncnc2c1ncn2[C@@H]1O[C@H](COP(=O)(O)OP(=O)(O)OP(=O)(O)O)[C@@H](O)[C@H]1O [ATP] |  | 0.80 | 2.18 | 68.07 | 3.6 |  | 1.37 | 2.27 | 70.62 | 5.75
